Experiment [1] has as its system Mtb H37Rv. As to the kind of experiment: MIC90 against replicating (R) Mtb H37Rv, with or without clavulanate. The experiment is classed as cell-based, Mycobacterium tuberculosis. The settings on record: Table S4; for Mtb H37Rv R + CLAV (MIC90): clavulanate 4 μg/mL; for Mtb H37Rv R (MIC90): no clavulanate.
Experiment [2] has as its system Mtb H37Rv. In words: MIC90 against nonreplicating (NR, 4-stress) Mtb H37Rv, with or without clavulanate. The settings on record: 4-stress nonreplicating, Table S4; for Mtb H37Rv NR + CLAV (MIC90): clavulanate 4 μg/mL; for Mtb H37Rv NR (MIC90): no clavulanate. In kind it is cell-based, Mycobacterium tuberculosis.
Another experiment has as its system E. coli. In words: Microbial spectrum, E. coli. In kind it is cell-based, Escherichia coli. The settings on record: clavulanate 4 μg/mL; Table S4.
The subject of a further experiment is P. aeruginosa. In words: Microbial spectrum, P. aeruginosa. In kind it is cell-based, Pseudomonas aeruginosa. The settings on record: clavulanate 4 μg/mL; Table S4.
Another experiment has as its system S. aureus. As to the kind of experiment: Microbial spectrum, S. aureus. In kind it is cell-based, Staphylococcus aureus. Particulars: clavulanate 4 μg/mL; Table S4.
For a further experiment, the system named is C. albicans. In words: Microbial spectrum, C. albicans. The settings on record: no clavulanate; Table S4. The experiment is classed as cell-based, Candida albicans.

Ten compounds from publication PMC8922279, “Identification of β-Lactams Active against Mycobacterium tuberculosis by a Consortium of Pharmaceutical Companies and Academic Institutions” (ACS Infectious Diseases, 2022) can be followed below.

For the compound `Cc1nnc(SCC2=C(C(=O)O)N3C(=O)[C@@H](NC(=O)Cc4sc(=O)sc4C)[C@H]3SC2)s1` [TBBL-0000330], in the experiment on Mtb H37Rv [1], the Mtb H37Rv R + CLAV (MIC90) was determined as 2.8 µM and the Mtb H37Rv R (MIC90) was 27.6 µM. In the experiment with Mtb H37Rv [2], the Mtb H37Rv NR + CLAV (MIC90) is greater than 100 µM and the Mtb H37Rv NR (MIC90) is greater than 100 µM. The E.coli R + CLAV (MIC90) with E. coli is greater than 100 µM. Further, the P.aeruginosa R + CLAV (MIC90) in the experiment with P. aeruginosa is greater than 100 µM. Further, the S.aureus R + CLAV (MIC90) in the experiment with S. aureus was greater than 100 µM. Also, in the experiment on C. albicans, the C.albicans R (MIC90) was greater than 100 µM.

In the case of `Nc1nnc(SCC2=C(C(=O)O)N3C(=O)[C@@H](NC(=O)CSc4cc(Cl)ccc4Cl)[C@H]3SC2)s1` [TBBL-0000467], in the experiment on Mtb H37Rv [1], the Mtb H37Rv R + CLAV (MIC90) is 1.5 µM and the Mtb H37Rv R (MIC90) is 52.2 µM. For the same compound, in the experiment on Mtb H37Rv [2], the Mtb H37Rv NR + CLAV (MIC90) is greater than 100 µM and the Mtb H37Rv NR (MIC90) was greater than 100 µM. Also, the E.coli R + CLAV (MIC90) with E. coli was greater than 100 µM. Besides, in the experiment with P. aeruginosa, the P.aeruginosa R + CLAV (MIC90) was greater than 100 µM. For the same compound, in the experiment with S. aureus, the S.aureus R + CLAV (MIC90) was less than 0.1 µM. Further, in the experiment with C. albicans, the C.albicans R (MIC90) was greater than 100 µM.

Consider `CC(=O)OCC1=C(C(=O)O)N2C(=O)[C@@H](NC(=O)CSc3nc4ccccc4s3)[C@H]2SC1` [TBBL-0000010], for which, in the experiment with Mtb H37Rv [1], the Mtb H37Rv R + CLAV (MIC90) is 3.9 µM and the Mtb H37Rv R (MIC90) came to 62 µM. In addition, in the experiment on Mtb H37Rv [2], the Mtb H37Rv NR + CLAV (MIC90) is greater than 100 µM and the Mtb H37Rv NR (MIC90) is greater than 100 µM. In addition, the E.coli R + CLAV (MIC90) in the experiment with E. coli is greater than 100 µM. Further, the P.aeruginosa R + CLAV (MIC90) in the experiment with P. aeruginosa was greater than 100 µM. In addition, the S.aureus R + CLAV (MIC90) in the experiment on S. aureus is 0.2 µM. The C.albicans R (MIC90) in the experiment on C. albicans is greater than 100 µM.

Take `Cc1nnc(SCC2=C(C(=O)O)N3C(=O)[C@@H](NC(=O)CSc4cc(Cl)ccc4Cl)[C@H]3SC2)s1` [TBBL-0000415]: in the experiment on Mtb H37Rv [1], the Mtb H37Rv R + CLAV (MIC90) was found to be 1.6 µM and the Mtb H37Rv R (MIC90) turned out to be 22.9 µM. For the same compound, in the experiment on Mtb H37Rv [2], the Mtb H37Rv NR + CLAV (MIC90) was greater than 100 µM and the Mtb H37Rv NR (MIC90) is greater than 100 µM. In the experiment on E. coli, the E.coli R + CLAV (MIC90) turned out to be 22.7 µM. The P.aeruginosa R + CLAV (MIC90) in the experiment with P. aeruginosa was greater than 100 µM. In addition, in the experiment with S. aureus, the S.aureus R + CLAV (MIC90) was less than 0.1 µM. Besides, the C.albicans R (MIC90) with C. albicans is greater than 100 µM.

Consider `CCn1nnnc1SCC1=C(C(=O)O)N2C(=O)[C@@H](NC(=O)Cc3ccc(C4=NCCCN4)cc3)[C@H]2SC1` [TBBL-0000318], for which, in the experiment on Mtb H37Rv [1], the Mtb H37Rv R + CLAV (MIC90) was found to be 0.8 µM and the Mtb H37Rv R (MIC90) amounted to 24.5 µM. Further, in the experiment with Mtb H37Rv [2], the Mtb H37Rv NR + CLAV (MIC90) was greater than 100 µM and the Mtb H37Rv NR (MIC90) was greater than 100 µM. For the same compound, the E.coli R + CLAV (MIC90) with E. coli amounted to 60.5 µM. Moreover, the P.aeruginosa R + CLAV (MIC90) in the experiment on P. aeruginosa was greater than 100 µM. Also, the S.aureus R + CLAV (MIC90) in the experiment on S. aureus was 2 µM. For the same compound, the C.albicans R (MIC90) in the experiment on C. albicans is greater than 100 µM.

Consider `Cn1nnnc1SCC1=C(C(=O)O)N2C(=O)[C@@H](NC(=O)Cc3ccc(C4=NCCN4)cc3)[C@H]2SC1` [TBBL-0000323], for which, in the experiment with Mtb H37Rv [1], the Mtb H37Rv R + CLAV (MIC90) stood at 0.8 µM and the Mtb H37Rv R (MIC90) turned out to be 31.9 µM. In addition, in the experiment on Mtb H37Rv [2], the Mtb H37Rv NR + CLAV (MIC90) is greater than 100 µM and the Mtb H37Rv NR (MIC90) was greater than 100 µM. Further, the E.coli R + CLAV (MIC90) in the experiment with E. coli worked out at 14 µM. For the same compound, the P.aeruginosa R + CLAV (MIC90) in the experiment with P. aeruginosa is greater than 100 µM. In addition, the S.aureus R + CLAV (MIC90) in the experiment on S. aureus came to 1.8 µM. In the experiment on C. albicans, the C.albicans R (MIC90) is greater than 100 µM.

Take `CC(O)Cn1nnnc1SCC1=C(C(=O)O)N2C(=O)[C@@H](NC(=O)Cc3csc(=O)s3)[C@H]2SC1` (some centres unmarked) [TBBL-0000325]: in the experiment on Mtb H37Rv [1], the Mtb H37Rv R + CLAV (MIC90) was determined as 1.4 µM and the Mtb H37Rv R (MIC90) stood at 53.2 µM. Further, in the experiment on Mtb H37Rv [2], the Mtb H37Rv NR + CLAV (MIC90) was greater than 100 µM and the Mtb H37Rv NR (MIC90) is greater than 100 µM. For the same compound, in the experiment with E. coli, the E.coli R + CLAV (MIC90) is 3.8 µM. The P.aeruginosa R + CLAV (MIC90) in the experiment with P. aeruginosa was greater than 100 µM. In addition, in the experiment with S. aureus, the S.aureus R + CLAV (MIC90) came out at 0.6 µM. The C.albicans R (MIC90) in the experiment on C. albicans is greater than 100 µM.

On to `O=C(CSc1cccc[n+]1[O-])N[C@@H]1C(=O)N2C(C(=O)O)=C(CSc3cccc[n+]3[O-])CS[C@H]12` [TBBL-0000003], for which, in the experiment with Mtb H37Rv [1], the Mtb H37Rv R + CLAV (MIC90) came out at 3.8 µM and the Mtb H37Rv R (MIC90) turned out to be 4.8 µM. Besides, in the experiment with Mtb H37Rv [2], the Mtb H37Rv NR + CLAV (MIC90) was 3.5 µM and the Mtb H37Rv NR (MIC90) stood at 3.2 µM. Besides, the E.coli R + CLAV (MIC90) in the experiment on E. coli is 44.1 µM. The P.aeruginosa R + CLAV (MIC90) in the experiment with P. aeruginosa was greater than 100 µM. Also, the S.aureus R + CLAV (MIC90) with S. aureus was 4.3 µM. In the experiment on C. albicans, the C.albicans R (MIC90) is greater than 100 µM.

As to `CC1=C(C(=O)O)N2C(=O)[C@@H](NC(=O)CSc3ccc(C(=N)N)cc3)[C@H]2SC1` [TBBL-0000328], in the experiment on Mtb H37Rv [1], the Mtb H37Rv R + CLAV (MIC90) is 1.4 µM and the Mtb H37Rv R (MIC90) came to 64.1 µM. Also, in the experiment with Mtb H37Rv [2], the Mtb H37Rv NR + CLAV (MIC90) is greater than 100 µM and the Mtb H37Rv NR (MIC90) is greater than 100 µM. The E.coli R + CLAV (MIC90) in the experiment with E. coli was greater than 100 µM. Also, in the experiment on P. aeruginosa, the P.aeruginosa R + CLAV (MIC90) is greater than 100 µM. Moreover, the S.aureus R + CLAV (MIC90) with S. aureus was found to be 12.9 µM. The C.albicans R (MIC90) in the experiment on C. albicans was greater than 100 µM.

For `CC(=O)OC(C(=O)N[C@@H]1C(=O)N2C(C(=O)O)=C(CSc3cccc[n+]3[O-])CS[C@H]12)c1ccccc1` (some centres unmarked) [TBBL-0000007], in the experiment on Mtb H37Rv [1], the Mtb H37Rv R + CLAV (MIC90) worked out at 2.8 µM and the Mtb H37Rv R (MIC90) came to 2.3 µM. In the experiment on Mtb H37Rv [2], the Mtb H37Rv NR + CLAV (MIC90) came to 2.5 µM and the Mtb H37Rv NR (MIC90) came to 2.3 µM. Moreover, the E.coli R + CLAV (MIC90) in the experiment with E. coli turned out to be 85.1 µM. Besides, in the experiment on P. aeruginosa, the P.aeruginosa R + CLAV (MIC90) was greater than 100 µM. Further, in the experiment with S. aureus, the S.aureus R + CLAV (MIC90) was found to be 2.4 µM. In addition, in the experiment on C. albicans, the C.albicans R (MIC90) was greater than 100 µM.
